Assay results taken from PubChem BioAssay (NCI).
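Results reflect a 48-hour exposure of cells in 96-well plates to compound at five concentrations. At the GI50, growth is halved. TGI: concentration producing complete growth inhibition.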

Assays:
Experiment in all cases: DTP human tumour cell line panel, 48 h
[1] = tested on: DU-145 prostate
[2] = tested on: NCI/ADR-RES ovarian
[3] = tested on: T-47D breast
[4] = tested on: PC-3 prostate
[5] = tested on: HT29 colon
[6] = tested on: A498 renal
[7] = tested on: COLO 205 colon
[8] = tested on: RXF 393 renal
[9] = tested on: RPMI-8226 leukemia
[10] = tested on: MALME-3M melanoma

Compound	GI50 [1]	GI50 [2]	TGI [2]	GI50 [3]	TGI [3]	GI50 [4]	TGI [4]	GI50 [5]	TGI [5]	GI50 [6]	TGI [6]	GI50 [7]	TGI [7]	GI50 [8]	TGI [8]	GI50 [9]	TGI [9]	TGI [1]	TGI [10]	GI50 [10]
Oc1ccc2ccccc2c1/C=N\Nc1ccccn1	0.482 µM	0.281 µM	33.3 µM	0.97 µM	> 100 µM	0.933 µM	> 100 µM	39.1 µM	> 100 µM	1.25 µM	7.03 µM	27.6 µM	> 100 µM	1.55 µM	> 57.4 µM	0.654 µM	> 100 µM			
CCOC1NC(=O)Oc2ccccc21 (stereo unspecified)			> 100 µM				> 100 µM		> 100 µM		> 100 µM		> 100 µM		> 100 µM			> 100 µM	> 100 µM	
CN(C)/[N+]([O-])=N/Oc1cc(Nc2ccc(C(=O)O)cc2)c([N+](=O)[O-])cc1[N+](=O)[O-]	18 µM	29.8 µM	> 100 µM			26.5 µM	53.1 µM	44.2 µM	> 100 µM			28.2 µM	63.5 µM	22.8 µM	47.8 µM	23.6 µM	> 100 µM	35.7 µM		
COC(=O)C1Cc2c([nH]c3ccccc23)C=N1 (stereo unspecified)									> 100 µM		> 100 µM		> 100 µM		> 100 µM		> 100 µM		> 100 µM	
Cc1cccc(C)c1NC(=O)C(=O)C1C(=O)N(c2ccccc2)N=C1N (stereo unspecified)									> 100 µM		> 100 µM		> 100 µM		> 100 µM		> 100 µM		> 100 µM	
O=C(CC1C(=O)Nc2ccccc2S1=O)Nc1cccc(Cl)c1 (stereo unspecified)			49.8 µM		42.7 µM				> 55.1 µM		47.3 µM		> 66.1 µM		45.6 µM		> 31 µM	> 100 µM	> 84.4 µM	
O=C(NC(=S)NS(=O)(=O)c1ccc(N2N=C3c4ccccc4CC3C2c2cccs2)cc1)c1ccccc1 (stereo unspecified)	28.3 µM	18.8 µM	67.1 µM	69.6 µM	> 100 µM	29.7 µM	> 100 µM	46 µM	> 100 µM			38.4 µM	> 100 µM	54 µM	> 100 µM	29.7 µM	> 100 µM	> 100 µM		
COc1nc2c(nc(N)n2C2OC(CO)C(O)C(O)C2O)c(=O)n1C (stereo unspecified)									> 100 µM		> 100 µM		> 100 µM		> 100 µM				> 100 µM	
COC(=O)/C(C#N)=C1\N=NNN1CCCc1ccccc1									> 100 µM		> 100 µM		> 100 µM		> 100 µM		> 100 µM		> 100 µM	
CC(C)(C)NNc1c([N+](=O)[O-])cnn(-c2ccccc2)c1=O					4.36 µM		3.23 µM		7.43 µM		> 100 µM		12.6 µM		18.1 µM		23.8 µM	26 µM	11.1 µM	
Cc1ccccc1NC(=O)c1[nH]c(=S)nc(N)c1-c1ccccc1C									> 100 µM		> 100 µM		> 100 µM		> 100 µM		> 100 µM		> 100 µM	
COc1ccc(/C=C(/C(=O)N2CCNCC2)c2cc(OC)c(OC)c(OC)c2)cc1O	4.1 µM	> 100 µM	> 100 µM	6.71 µM	> 100 µM	2.72 µM	> 100 µM	7.75 µM	> 100 µM	1.22 µM	7.33 µM	3.24 µM	14 µM	2.95 µM	> 100 µM	3.55 µM	> 100 µM	> 100 µM		
N#C/C(=C/N1CCN(C(=O)c2ccco2)C1=S)C(N)=O	29.8 µM	25.4 µM	59.6 µM	9.32 µM	> 100 µM	35.6 µM	> 100 µM	24.1 µM	> 100 µM			24.9 µM	> 100 µM	19.2 µM	82.2 µM	12.4 µM	> 100 µM	> 100 µM	56.8 µM	12.5 µM
C[C@H](NC(=O)OC1C2C=CC(O)C1CC2)c1ccccc1 (stereo partly specified)											> 100 µM		> 100 µM		> 100 µM		48.6 µM		> 100 µM	
Cc1ccc(Cl)cc1Nc1nc(C(F)(F)F)ccc1C(=O)Oc1ccc(Cl)cc1	7.73 µM	15.6 µM	46.6 µM	6.53 µM	42.2 µM	5.85 µM	21.1 µM	13.3 µM	> 100 µM	11.9 µM	33.2 µM	9.81 µM	> 100 µM	3.97 µM	16 µM	28.6 µM	> 100 µM	24.8 µM		
O=C(OCCOCCOC(=O)c1c[nH]cc1-c1ccccc1)c1c[nH]cc1-c1ccccc1									35.2 µM		53.1 µM		35.6 µM		35.6 µM		56.9 µM		55.2 µM	
CCC(=O)O[C@@H]1C2C(OC(C)=O)C34COC(C)([C@@H]3C3C(C[C@]3(C)OC(C)=O)[C@@H](OC(=O)c3ccccc3)C4=O)[C@H](OC(C)=O)[C@@]2(OC(C)=O)C[C@@H]1C (stereo partly specified)									> 100 µM				> 100 µM				> 100 µM		> 100 µM	
Cc1ccc(S(=O)(=O)N2CCCCC2CCO)cc1 (stereo unspecified)									> 100 µM		> 100 µM		> 100 µM		> 100 µM		> 100 µM		> 100 µM	
COc1ccccc1NC(=O)C1=C(C)NC(C)=C(C(=O)Nc2ccccc2OC)C1c1ccc(C(C)C)cc1									> 100 µM		> 100 µM		> 100 µM				> 100 µM		> 100 µM	
O=C1c2cc3c(cc2-c2c1c1ccc([N+](=O)[O-])cc1c(=O)n2CCCCl)OCO3	0.122 µM	0.0743 µM			> 100 µM	2.4 µM	> 100 µM	1.07 µM	> 100 µM	0.367 µM	5.93 µM	0.567 µM	> 100 µM			0.275 µM	> 26.6 µM	> 100 µM		
